Reference: US20220194938A1, “NOVEL COMPOUNDS AND PHARMACEUTICAL COMPOSITIONS THEREOF FOR THE TREATMENT OF INFLAMMATORY DISORDERS” (GALAPAGOS NV, priority 2019, published 2022)

Columns and labels:
[1] = target: T1, hERG channel (Homo sapiens, UniProt Q12809); test: hERG channel test - manual patch clamp assay; type: cell-based; details: 10 μM, HEK293 cells stably transfected with hERG, tail current
T1 construct: host or cells: HEK293
Experimental: 4.7 hERG Channel Test—Manual Patch Clamp Assay
The aim of this assay is to determine the in-vitro effects of a test compound on hERG current ([…]) expressed in Human Embryonic Kidney (HEK) cells (evaluation of the blocking profile of test substance on the IKr-like potassium current mediated by hERG channel stably transfected in a human cell line), which is linked to cardiac safety.
The test substance is dissolved in pure dimethylsulfoxide (DMSO) by cold stirring to give a stock solution concentrated 333-fold as compared with the highest concentration to be tested. This stock solution is used to prepare the other stock solutions in DMSO. Each stock solution is used to prepare the solutions containing the final concentrations tested by dilution in extracellular solution (0.1, 1, 10 and 100 μM). Final concentration of DMSO should not not exceed 0.3%.
All formulations are prepared in glass containers.
If a slight opalescence persists at the highest concentration, a 50 μM (instead of 100 μM) concentration is tested.
DMSO diluted in extracellular solution (at the different concentrations used in the final test substance solutions) is used as vehicle.
The extracellular solution is constituted as follows (mM): K-gluconate: 4 mM/Na-gluconate: 145 mM/Mg-gluconate: 2 mM/Ca-gluconate: 3.5 mM/HEPES: 5 mM/glucose: 5 mM/mannitol: 20 mM. The pH is adjusted with NaOH to 7.40±0.05.
Human embryonic kidney (HEK293) cells are stably transfected with the hERG clone (Creacell) and are maintained at 37° C. in a 5% CO2/95% air incubator. Cells used for the study are transferred to an experimental chamber of approximately 2 mL which is maintained at a temperature of 35±0.5° C. by a thermoelectric device (Harvard Apparatus: Type TC-344B) and mounted on the platform of an inverted microscope (Olympus: Type IX-51 or Leica DMI3000 B). Cells are continuously superfused with Tyrode's solution constituted as follows (mM): NaCl: 145/KCl: 4/HEPES: 5/glucose: 5/CaCl2:1/MgCl2: 1.
Ionic currents from hERG-transfected cells are measured using the whole cell configuration of the patch clamp technique. Glass pipettes are pulled from borosilicate glass by a vertical puller (Sutter Instruments: Type P30). Pipette tip resistance is approximately 1.5 to 3.5 MΩ when filled with internal solution constituted as follows (mM): K-gluconate: 145/Mg-gluconate: 1/EGTA: 2/HEPES:5/K2ATP: 2.
The pipettes are connected to the input stage of a patch-clamp amplifier (Axon Instruments: Multiclamp 700B-1). Stimulation, data recording and analysis are performed using specialized Axon Instruments software (pClamp 9.2.0. or pClamp 10.3.0.2).
After rupture of the cell membrane (entering whole-cell mode), cells are stimulated every 10 seconds using the following protocol: 500 ms pulse to +10 mV from a holding potential of −80 mV followed by a 500 ms pulse to −40 mV during which tail current is measured.
Once the current under control conditions is stable, recordings are taken before (control) and after addition of the test substance. The effect of the test substance on tail current is monitored continuously until steady-state is reached. The peak tail current amplitude is averaged for 3 stimuli.
The following parameters are measured: • Cell capacitance (pF). • Peak tail current amplitude (pA).
Peak tail current measurements are normalized using the cell capacitance as an index of cell surface.
The cells will be considered as valid if cell capacitance <80 pF, access resistance <20 MΩ and holding current >−200 pA.
Results are expressed as absolute values and as percentage change from control (percentage of tail current inhibition).
The test substance is studied at 4 ascending concentrations on 3 hERG-transfected cells.
The concentration of test substance inducing 50% of inhibition (IC50) of tail current is determined, if possible, from each individual concentration-response curve. The equation is of the following form: […]

[2] = target: T2, human IRAK-4 (Homo sapiens, UniProt Q9NWZ3); test: Phosphorylation IC50 determination for human IRAK-4 (ADP-Glo kinase assay); details: human IRAK-4, RIP140 substrate, Km ATP; read-out: IRAK4 ADPglo biochemical assay IC50
T2 construct: purchased Carna Biosciences 09 145
T2 sequence (Q9NWZ3 1-460): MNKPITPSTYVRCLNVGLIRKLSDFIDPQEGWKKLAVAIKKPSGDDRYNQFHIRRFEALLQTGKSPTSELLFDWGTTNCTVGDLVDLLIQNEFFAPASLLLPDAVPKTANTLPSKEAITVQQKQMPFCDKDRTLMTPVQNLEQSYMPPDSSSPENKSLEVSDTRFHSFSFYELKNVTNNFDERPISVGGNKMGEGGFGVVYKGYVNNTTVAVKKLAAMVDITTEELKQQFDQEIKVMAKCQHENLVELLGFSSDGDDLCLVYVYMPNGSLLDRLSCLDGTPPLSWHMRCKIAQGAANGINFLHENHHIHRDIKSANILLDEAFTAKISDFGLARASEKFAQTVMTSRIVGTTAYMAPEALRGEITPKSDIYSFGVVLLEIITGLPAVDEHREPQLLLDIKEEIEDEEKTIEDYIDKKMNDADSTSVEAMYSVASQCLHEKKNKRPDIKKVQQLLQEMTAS
Experimental: 3.1. Phosphorylation IC50 Determination for Human IRAK-4
The phosphorylation of the substrate RIP140 (SEQ ID1) by IRAK4 at Km ATP was detected with the ADP-Glo Kinase Assay (Promega, Cat #V9103), a luminescent kinase assay which measures the ADP formed from a kinase reaction. (Zegzouti et al. 2009) In a second step the kinase reaction was terminated and all the remaining ATP was depleted. In a final step the ADP was converted into ATP and this newly synthesized ATP was measured by using a luciferase/luciferin reaction with a luminescent reader. The luminescent signal positively correlated with kinase activity, in particular kinase inhibition giving a decrease of the luminescent signal.
For the semi-automated assay, the positive control (100% inhibition) was prepared by diluting 10 mM staurosporine stock mixture (20 μL) in water (3.8 mL) and DMSO (180 μL), thus resulting in a […] staurosporine solution at 1% DMSO (final concentration after further dilution in the kinase reaction).
For the automated assay, no pre-dilution of the 10 mM staurosporine stock was made. 10 mM staurosporine was spotted directly in the assay plate using acoustic dispensing and complemented with DMSO to result in a similar final concentration as mentioned above.
For the semi-automated assay, the negative control (0% inhibition) was prepared by mixing water (3.8 mL) and DMSO (200 μL) resulting in a final concentration of 1% DMSO after further dilution in the kinase reaction. For the automated assay no pre-dilution of DMSO was done. 100% DMSO was spotted directly on the assay plate.
The assay buffer solution was prepared at a concentration corresponding to 5 fold the final (most diluted) assay concentration by mixing a solution of 125 mM TRIS pH 7.5+0.05% Triton X-100+2.5 mM EGTA (5.27 mL) with 1M mgCl2 (72 μL), 1M DTT (57.6 μL), and 200 mM MnCl2 (360 μL).
For example, for the semi-automated method, the enzyme-substrate mixture was prepared by mixing water (3999 μL), assay buffer solution (1380 μL), 1 mM RIP140 (138 μL—SEQ ID1), and 200 ng/mL IRAK 4 (3.45 μL Carna Biosciences, 09 145).
For semi-automated method, the ATP mixture was prepared at a concentration corresponding to 2.5 fold the final (most diluted) assay concentration of the semi-automated method and 1.5 fold the final (most diluted) assay concentration of the automated method. For example, for the semi-automated method, the ATP mixture was prepared by mixing water (4126 μL), assay buffer solution (1380 μL), and 10 mM ATP (13.80 μL).
The assay was performed either in a semi-automated or fully automated manner. The assay volume and the incubation time of the ADP detection were different accordingly the method used.
3.1.3.1. Semi-Automated Assay
The compounds were prepared as a serial dilution of 10 point dose responses with 1/5 dilution steps in 100% DMSO starting from 2 mM highest concentration, diluted 1/20 in water. 1 μL was transferred dry to the assay plates.
On each assay plate 32 wells of each control (positive & negative) were added, followed by 2 μL enzyme-substrate mixture.
The reaction was started by adding 2 μL diluted ATP (final concentration Km ATP) on the assay plates. Plates were centrifuged for a few seconds at 1000 rpm followed by an incubation at r.t. for 120 min.
The reactions were stopped and the unconsumed ATP was depleted by adding 5 μL ADP-glo Reagent (Promega, Cat #V9103) to the reaction. The plates were quickly centrifuged at 1000 rpm and incubated at r.t. for 40 min corresponding to full ATP depletion.
The ADP was converted back to ATP and luciferase and luciferin were introduced to detect ATP by adding 10 μL kinase detection reagent (Promega, Cat #V9103) to the reaction. The plates were centrifuged for a few seconds at 1000 rpm and incubated at r.t. for a further 30 min.
Luminescent read out was performed on an Envision luminescent reader (Perkin Elmer). […]

T1 sequence (Q12809 whole entry): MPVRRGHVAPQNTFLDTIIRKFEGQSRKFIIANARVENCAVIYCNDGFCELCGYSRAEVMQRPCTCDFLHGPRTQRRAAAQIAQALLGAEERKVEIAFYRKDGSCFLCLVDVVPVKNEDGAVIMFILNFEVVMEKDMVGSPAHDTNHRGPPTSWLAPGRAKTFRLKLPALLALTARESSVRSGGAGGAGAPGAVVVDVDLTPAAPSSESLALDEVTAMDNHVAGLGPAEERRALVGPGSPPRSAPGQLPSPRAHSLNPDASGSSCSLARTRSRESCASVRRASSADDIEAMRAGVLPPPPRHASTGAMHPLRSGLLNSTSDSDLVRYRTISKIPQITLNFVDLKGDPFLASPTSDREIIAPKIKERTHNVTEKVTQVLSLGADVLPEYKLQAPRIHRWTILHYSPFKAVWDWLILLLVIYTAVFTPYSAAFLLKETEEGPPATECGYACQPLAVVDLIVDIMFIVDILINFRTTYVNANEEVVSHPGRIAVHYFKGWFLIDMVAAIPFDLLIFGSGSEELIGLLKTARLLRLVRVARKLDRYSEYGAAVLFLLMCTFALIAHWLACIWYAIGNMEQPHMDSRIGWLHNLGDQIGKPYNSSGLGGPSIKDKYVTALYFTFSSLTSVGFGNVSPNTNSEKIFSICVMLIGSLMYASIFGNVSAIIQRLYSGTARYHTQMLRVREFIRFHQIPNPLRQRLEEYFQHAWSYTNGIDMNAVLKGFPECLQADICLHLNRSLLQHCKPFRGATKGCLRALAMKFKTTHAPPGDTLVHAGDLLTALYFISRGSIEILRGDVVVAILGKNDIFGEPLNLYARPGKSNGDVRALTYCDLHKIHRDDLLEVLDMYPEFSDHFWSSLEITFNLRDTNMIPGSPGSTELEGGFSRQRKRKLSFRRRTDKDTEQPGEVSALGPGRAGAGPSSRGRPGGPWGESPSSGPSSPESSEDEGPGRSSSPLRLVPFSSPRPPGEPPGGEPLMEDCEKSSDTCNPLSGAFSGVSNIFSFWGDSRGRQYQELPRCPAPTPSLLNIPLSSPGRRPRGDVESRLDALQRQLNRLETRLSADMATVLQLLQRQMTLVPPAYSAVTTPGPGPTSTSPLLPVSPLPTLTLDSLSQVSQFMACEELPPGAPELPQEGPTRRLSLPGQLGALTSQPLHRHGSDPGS

- IC50 [2]: 0.1 to 5 nM
SMILES: CC(C)(O)CCc1cn2cc(NC(=O)c3cccc(C(F)(F)F)n3)c(C(=O)NCC(F)(F)F)cc2n1 [Compound 41, 2-(3-hydroxy-3-methylbutyl)-N-(2,2,2-trifluoroethyl)-6-(6-(trifluoromethyl)picolinamido)imidazo[1,2-a]pyridine-7-carboxamide]
- hERG Manual Patch Clamp Single dose PIN (10 μM) [1]: −17%
